Laboratory results reported in patent US20030059511A1, “Sweetener compositions and uses thereof” (AJINOMOTO CO., INC., priority 1999, published 2003).
Where a SMILES comes first, the peptide text is derived from it.

How the values were obtained:
[1] = Taste characteristics in a cola drink (9 items, similarity index vs cola drink containing 10% sucrose); assay type: in vivo, human; conditions: non-carbonated cola drink, PSE 10%, vs cola drink with 10% sucrose; smaller = closer to sucrose; 8 panelists
Experimental: The following experiments were performed in the same way as that of Example 2. Instead of aqueous solution, the cola drink of each of derivatives 1 to 9 having a sweetness level equivalent to that of PSE 10% was prepared, and compared with the cola drink containing 10% sucrose. The evaluation method and so on were same as that of Example 2.
When carbon dioxide is blown in the cola drink, the carbonated cola drink is prepared, however, the taste of the cola drink can be compared more easily in that without carbon dioxide. Thus the sensory evaluation of non-carbonated cola drink was performed.
The composition of the cola drink employed was same as that of Example 1.
(§1) The similarity indexes were calculated as those of aqueous solutions. The smaller the similarity index becomes, the better the taste balances, and the closer the taste is to the taste characteristics (quality) of sucrose. The total taste becomes preferable. The similarity indexes of each derivatives are shown as follows. […]
The following experiments were conducted in the same way as that of Example 15. Instead of aqueous solution, the cola drink of each of derivatives 1 to 9 having a sweetness level equivalent to that of PSE 10% was prepared, and compared with the cola drink containing 10% sucrose. All of the evaluation method and so on were same as those of Example 15.
When carbon dioxide is blown in the cola drink, the carbonated cola drink is prepared, however, the taste of the cola drink can be compared more easily in that without carbon dioxide. Thus the non-carbonated cola drink was organoleptically evaluated.
The composition of the cola drink employed was same as that of Example 14.
as §1, with “(quality)of” for “(quality) of”, “each of the” for “each”

[2] = cited from earlier work; for magnification used for the sweetness intensity of the another sweetener with a high intense sweetness: values used for calculation in Example 5; for sweetness intensity, times that of sucrose by weight: reported in JP-A-8-503206 / JP-B-47-31031; for magnification of sweetness intensity (numerical values in brackets): values used for calculation in Example 17, sucrose = 1
[3] = Equations for calculating sweetness intensity and values calculated from them; assay type: in vivo, human; conditions: for magnification of sweetness intensity at PSE 0.5%: sweetener for tabletop use
From the text: For example, when preparing a solution having a intensity of sweetness equivalent to that of 10% sucrose, wherein 80% of the 10% of intensity of sweetness is from the sweetener component A and the residual 20% is from the sweetener component B, the sweetness ratio is A:B=8:2. When the sweetening magnification relative to sucrose varies depending on the composition and the concentration of the sweetener component is varied even if it is a same sweetener component (in this case, an exponential curve can be prepared and used for calculation), the objective weight of the sweetener component can be calculated. For example, if the equation for converting sweetness intensity (the exponential curve) component A is Y=aX^b, and the equation for converting sweetness intensity (the exponential curve)of component B is Y=cX^d, the weight ratio of the components A and B in the ratio A:B=8:2, can be determined using the following calculation, where Y is a concentration equivalent to that of sucrose (PSE %), and X is the sweetener component concentration (g/100 ml):
(§2) Equations for calculating sweetness intensity in the cola drink (pH 2.8, 20° C.) are as follows, wherein Y denotes the concentration equivalent to that of sucrose (g/100 ml) and X denotes the concentration of the sweetener (g/100 ml), respectively.
With regard to Acesulfame K, the magnification of sweetness intensity was determined according to the following equation for calculating sweetness intensity.
[Y: concentration equivalent to that of sucrose (g/100ml); X: concentration of Acesulfame K (g/100 ml)]
By using the equation for calculating sweetness intensity in the cola drink (refer to Example 4) and the equation for calculating sweetness intensity of Aspartame (refer to the monthly Journal “Food Chemical” August, page 35, 1997), the necessary amounts of those were calculated. In case of Aspartame, the values at 20° C., pH2.8 were used.
The equation for calculating sweetness intensity of derivative 1 in the aqueous solution is as follows.
Where, the calculation of the sweetness was made by using the equation for calculating sweetness intensity of derivative 4 Y=58775X^1.04. When Y=6.3%, X=0.00015 g/100 ml, When Y=5.1%, X=0.00012 g/100 ml.
as §2, with “Examples for equations” for “Equations”, “(pH2.8,” for “(pH 2.8,”, “follows, and another equations can be prepared in the same manner,” for “follows,”

Compound: CC1=CC(=O)[N-]S(=O)(=O)O1.[K+] [Acesulfame K, reference compound]
- Similarity index [1]: ~2.0

Compound: C[C@@H](NC(=O)[C@@H](N)CC(=O)O)C(=O)NC1C(C)(C)SC1(C)C [Alitame]
- magnification used for the sweetness intensity of the another sweetener with a high intense sweetness [2]: 2000 times

Compound: COC(=O)[C@H](Cc1ccccc1)NC(=O)[C@@H](N)CC(=O)O [Aspartame, reference compound] (H-Asp-Phe-OMe)
- X, concentration of the sweetener when Y=0.5 ([3]; 20° C., pH 2.8): 0.00072 g/100 ml
- X, concentration of the sweetener when Y=9 ([3]; 20° C., pH 2.8): 0.04726 g/100 ml
- magnification of the sweetness intensity at PSE 5% ([3]; calculated, block ice of Example 12): 130 times
- magnification of sweetness intensity at PSE 0.5% ([3]; calculated): 360 times
- X, concentration of the sweetener when Y=2 ([3]; cola drink, pH 2.8, 20° C.): 0.0053 g/100 ml
- X, concentration of the sweetener when Y=5 ([3]; cola drink, pH 2.8, 20° C.): 0.0202 g/100 ml
- X, concentration of the sweetener when Y=8 ([3]; cola drink, pH 2.8, 20° C.): 0.0398 g/100 ml
- sweetness intensity, times that of sucrose by weight [2]: 200 times

Compound: O=C[C@H](O)[C@@H](O)[C@H](O)CO [D-xylose]
- magnification of sweetness intensity (numerical values in brackets) [2]: 0.4

Compound: OC[C@@H](O)[C@@H](O)CO [Erythritol, reference compound]
- magnification of sweetness intensity at PSE 0.5% ([3]; calculated): 0.75 times
- magnification of sweetness intensity (numerical values in brackets) [2]: 0.75

Compound: COC(=O)[C@H](Cc1ccccc1)NC(=O)[C@H](CC(=O)O)NCCC(C)(C)C [Neotame]
- sweetness intensity, times that of sucrose by weight [2]: 10000 times

Compound: O=C1NS(=O)(=O)c2ccccc21 [Saccharine]
- magnification used for the sweetness intensity of the another sweetener with a high intense sweetness [2]: 190 times

Compound: O=C1NS(=O)(=O)c2ccccc21.[Na] [Sodium Saccharine]
- magnification used for the sweetness intensity of the another sweetener with a high intense sweetness [2]: 190 times

Compound: C=C1C[C@@]23CC[C@H]4[C@@](C)(CCC[C@@]4(C)C(=O)O[C@@H]4O[C@H](CO)[C@@H](O)[C@H](O)[C@H]4O)[C@@H]2CC[C@]1(O[C@@H]1O[C@H](CO)[C@@H](O)[C@H](O)[C@H]1O[C@@H]1O[C@H](CO)[C@@H](O)[C@H](O)[C@H]1O)C3 [Stevioside]
- magnification used for the sweetness intensity of the another sweetener with a high intense sweetness [2]: 140 times

Compound: CC1(C)[C@@H](O[C@H]2O[C@H](C(=O)[O-])[C@@H](O)[C@H](O)[C@H]2O[C@@H]2O[C@H](C(=O)O)[C@@H](O)[C@H](O)[C@H]2O)CC[C@]2(C)[C@H]3C(=O)C=C4[C@@H]5C[C@@](C)(C(=O)[O-])CC[C@]5(C)CC[C@@]4(C)[C@]3(C)CC[C@@H]12.[Na+].[Na+] [disodium glycyrrhizinate]
- magnification used for the sweetness intensity of the another sweetener with a high intense sweetness [2]: 100 times

Compound: O=C(CO)[C@@H](O)[C@H](O)[C@H](O)CO [fructose]
- magnification of sweetness intensity (numerical values in brackets) [2]: 1.4

Compound: OC[C@@H](O)[C@@H](O[C@@H]1O[C@H](CO)[C@H](O)[C@H](O)[C@H]1O)[C@H](O)[C@@H](O)CO [lactitol]
- magnification of sweetness intensity (numerical values in brackets) [2]: 0.35

Compound: OC[C@H]1O[C@@H](O[C@H]2[C@H](O)[C@@H](O)C(O)O[C@@H]2CO)[C@H](O)[C@@H](O)[C@H]1O (stereo partly drawn) [lactose]
- magnification of sweetness intensity (numerical values in brackets) [2]: 0.2

Compound: OC[C@H]1O[C@H](O[C@H]2[C@H](O)[C@@H](O)[C@H](O)O[C@@H]2CO)[C@H](O)[C@@H](O)[C@@H]1O [malt sugar]
- magnification of sweetness intensity (numerical values in brackets) [2]: 0.3

Compound: OC[C@@H](O)[C@@H](O[C@H]1O[C@H](CO)[C@@H](O)[C@H](O)[C@H]1O)[C@H](O)[C@@H](O)CO [maltitol]
- magnification of sweetness intensity (numerical values in brackets) [2]: 0.75

Compound: OC[C@@H](O)[C@@H](O)[C@H](O)[C@H](O)CO [mannitol]
- magnification of sweetness intensity (numerical values in brackets) [2]: 0.6

Compound: OC[C@H]1O[C@H](OC[C@H]2OC(O)(CO)[C@@H](O)[C@@H]2O)[C@H](O)[C@@H](O)[C@@H]1O (stereo partly drawn) [paratinose]
- magnification of sweetness intensity (numerical values in brackets) [2]: 0.4

Compound: O=S(=O)([O-])NC1CCCCC1.[Na+] [sodium cyclamate]
- magnification used for the sweetness intensity of the another sweetener with a high intense sweetness [2]: 30 times

Compound: OC[C@@H](O)[C@@H](O)[C@H](O)[C@@H](O)CO [sorbitol]
- magnification of sweetness intensity (numerical values in brackets) [2]: 0.75

Compound: OC[C@H]1O[C@H](O[C@]2(CCl)O[C@H](CCl)[C@@H](O)[C@@H]2O)[C@H](O)[C@@H](O)[C@H]1Cl [suclarose]
- magnification used for the sweetness intensity of the another sweetener with a high intense sweetness [2]: 400 times

Compound: OC[C@H]1O[C@H](O[C@H]2O[C@H](CO)[C@@H](O)[C@H](O)[C@H]2O)[C@H](O)[C@@H](O)[C@@H]1O [trehalose]
- magnification of sweetness intensity (numerical values in brackets) [2]: 0.45

Compound: OC[C@@H](O)[C@H](O)[C@@H](O)CO [xylitol]
- magnification of sweetness intensity (numerical values in brackets) [2]: 1

Compound: Thaumatin
- magnification used for the sweetness intensity of the another sweetener with a high intense sweetness [2]: 850 times

Compound: isomerized lactose
- magnification of sweetness intensity (numerical values in brackets) [2]: 0.6

Compound: paratinit
- magnification of sweetness intensity (numerical values in brackets) [2]: 0.45
